Data taken from article PMC5545170 (Pediatric diabetes, 2017).

Experiments:
Assay in all cases: spectrophotometric GDH activity in […] cell homogenate
Assay type in all cases: biochemical
[1] = biological target: GDH (glutamate dehydrogenase, GLUD1) (Homo sapiens, UniProt P00367, H507Y)
[2] = biological target: GDH (glutamate dehydrogenase, GLUD1) (Homo sapiens, UniProt P00367, S498L)
[3] = biological target: GDH (glutamate dehydrogenase, GLUD1) (Homo sapiens, UniProt P00367)
Sequence of GDH (glutamate dehydrogenase, GLUD1) (Homo sapiens, UniProt P00367) (P00367 54-558): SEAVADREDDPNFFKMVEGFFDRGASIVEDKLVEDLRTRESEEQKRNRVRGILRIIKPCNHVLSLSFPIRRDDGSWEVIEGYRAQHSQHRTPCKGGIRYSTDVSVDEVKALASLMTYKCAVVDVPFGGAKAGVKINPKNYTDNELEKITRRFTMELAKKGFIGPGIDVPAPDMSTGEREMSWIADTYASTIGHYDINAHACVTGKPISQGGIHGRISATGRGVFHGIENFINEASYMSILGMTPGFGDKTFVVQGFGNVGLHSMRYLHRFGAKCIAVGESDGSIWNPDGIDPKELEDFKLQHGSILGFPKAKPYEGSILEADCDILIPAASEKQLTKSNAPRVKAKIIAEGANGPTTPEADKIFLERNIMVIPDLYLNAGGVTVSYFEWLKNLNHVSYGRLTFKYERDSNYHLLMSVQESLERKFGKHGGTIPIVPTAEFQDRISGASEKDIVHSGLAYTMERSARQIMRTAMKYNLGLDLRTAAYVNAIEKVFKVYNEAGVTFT

Sequence of GDH (glutamate dehydrogenase, GLUD1) (Homo sapiens, UniProt P00367, S498L) (P00367 54-558 S498L): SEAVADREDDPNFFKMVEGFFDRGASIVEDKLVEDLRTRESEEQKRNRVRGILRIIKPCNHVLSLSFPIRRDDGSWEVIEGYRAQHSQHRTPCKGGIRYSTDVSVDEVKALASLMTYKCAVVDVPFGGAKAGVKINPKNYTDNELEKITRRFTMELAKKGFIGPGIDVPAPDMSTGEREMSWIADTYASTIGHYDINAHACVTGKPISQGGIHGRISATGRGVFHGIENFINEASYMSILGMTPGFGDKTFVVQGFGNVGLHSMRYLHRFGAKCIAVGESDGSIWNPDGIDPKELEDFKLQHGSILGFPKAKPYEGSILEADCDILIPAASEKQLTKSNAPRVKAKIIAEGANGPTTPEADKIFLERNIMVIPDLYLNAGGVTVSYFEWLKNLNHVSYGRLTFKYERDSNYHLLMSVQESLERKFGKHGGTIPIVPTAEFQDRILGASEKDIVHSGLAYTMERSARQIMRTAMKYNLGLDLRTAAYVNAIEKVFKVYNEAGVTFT
Sequence of GDH (glutamate dehydrogenase, GLUD1) (Homo sapiens, UniProt P00367, H507Y) (P00367 54-558 H507Y): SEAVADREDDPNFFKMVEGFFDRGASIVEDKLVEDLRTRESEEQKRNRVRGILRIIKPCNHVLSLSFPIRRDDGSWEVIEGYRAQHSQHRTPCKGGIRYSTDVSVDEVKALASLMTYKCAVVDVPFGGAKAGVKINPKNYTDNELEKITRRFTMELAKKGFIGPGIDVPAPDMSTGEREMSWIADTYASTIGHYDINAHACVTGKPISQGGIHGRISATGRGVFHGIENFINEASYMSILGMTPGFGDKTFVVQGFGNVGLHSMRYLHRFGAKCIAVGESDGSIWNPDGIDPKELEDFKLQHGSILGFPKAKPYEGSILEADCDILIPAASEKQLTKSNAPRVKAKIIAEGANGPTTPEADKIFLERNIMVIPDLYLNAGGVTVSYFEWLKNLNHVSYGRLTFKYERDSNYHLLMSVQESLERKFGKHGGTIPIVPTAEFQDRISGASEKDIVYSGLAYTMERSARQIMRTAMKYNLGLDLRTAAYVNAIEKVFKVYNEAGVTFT

Row | IC50 [1] | IC50 [2] | IC50 [3] | SMILES
1 | 314 µM | 40.7 µM | 0.048 µM | Nc1nc2c(ncn2[C@@H]2O[C@H](COP(=O)(O)OP(=O)(O)OP(=O)(O)O)[C@@H](O)[C@H]2O)c(=O)[nH]1 [GTP]
2 | 1.02 µM | 1.07 µM | 1.05 µM | O=C(O[C@@H]1Cc2c(O)cc(O)cc2O[C@@H]1c1cc(O)c(O)c(O)c1)c1cc(O)c(O)c(O)c1 [EGCG]
